Experiment [1] addresses T1, phospholipase A2 from rat inflammatory sites (Rattus norvegicus, UniProt P14423).
T1 construct: rat inflammatory sites (Chang et al., J. Biochem., 102, 147-154, 1987); from tissue
T1 sequence (P14423 22-146): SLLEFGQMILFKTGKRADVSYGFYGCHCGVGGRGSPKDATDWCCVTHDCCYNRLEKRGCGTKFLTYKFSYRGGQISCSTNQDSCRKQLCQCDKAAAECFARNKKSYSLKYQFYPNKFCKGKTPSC
Kind of experiment: Determination of inhibitory activity against phospholipase A2 (rat inflammatory sites). The class given is biochemical. The following applies: phosphatidylethanolamine substrate, pH 9.0, 37° C., 10 minutes. The method, then: (§1) The activity-measuring system was prepared by adding distilled water to 100 mM Tris-HCl (ph 9.0), 4 mM calcium chloride, 0.1 mM phosphatidylethanolamine (2,000 dpm/nmol), and 10 μl sample to adjust the total volume to 240 μl, and finally 10 μl of 0.1 ng/μ1 phospholipase A2 was added. The phospholipases A2 used were from human inflammatory sites (the joint fluid from patients with rheumatoid arthritis) (Hara et al., J. Biochem., 104, 326-328, 1988), rat inflammatory sites (Chang et al., J. Biochem., 102, 147-154, 1987), and porcine pancreas (Boehringer Manheim Co.). Phosphatidylethanolamine was purified from Escherichia coli cultured in a medium to which acetic acid was added.
(§2) The reactions were conducted at 37° C. with stirring for 10 minutes. The termination of the reaction and the extraction of fatty acids generated were carried out by the Dole's method (Dole et al., J. Biol. Chem., 235, 2595-2599, 1960) and the extracted fatty acid was determined with a scintillation counter.
(§3) The lyophilyzed sample obtained in Example 1 was dissolved again in 50% acetone-0.1% trifluoroacetic acid to adjust the concentration to 10 mg/ml. The solution was further diluted stepwise with the same buffer and the inhibitory activity of phospholipase A2 from inflammatory sites was determined at individual concentrations.

Experiment [2] concerns the target T2, phospholipase A2 from human inflammatory sites (the joint fluid from patients with rheumatoid arthritis) (Homo sapiens, UniProt P14555).
T2 construct: from human inflammatory sites (the joint fluid from patients with rheumatoid arthritis); from tissue; host or cells: joint fluid from patients with rheumatoid arthritis
T2 sequence (P14555 21-144): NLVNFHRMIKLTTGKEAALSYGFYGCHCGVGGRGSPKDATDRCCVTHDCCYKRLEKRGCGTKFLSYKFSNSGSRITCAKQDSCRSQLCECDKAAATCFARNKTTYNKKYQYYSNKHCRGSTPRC
Description: Determination of inhibitory activity against phospholipase A2 (human inflammatory sites). The class given is biochemical. The following applies: phosphatidylethanolamine substrate, pH 9.0, 37° C., 10 minutes. The method, then: as §1, §2, §3

For 1 sequence, IC50 results are on record in patent US5374713A, “Peptide inhibitors of phospholipase A2 purified from inflammatory sites” (Teijin Limited, priority 1990, dated 1994).

Ends that are not written are not given here.

Take QKDAPDHQELNLDVSLQLPSR: the 50% inhibitory concentration (IC50) in experiment [1] and in experiment [2] was ~500 nM each time.
